The source of these data is patent US20260226071A1, “2, 4-DIANILINOPYRIMIDINE-BASED AURORA-A KINASE SELECTIVE DEGRADATION INDUCING COMPOUNDS” (UPPTHERA, INC., priority 2023, published 2026).

The target of the assay is T1, Aurora kinase A (AURKA) (Homo sapiens, UniProt O14965).
T1 construct: endogenous in cells; host or cells: HeLa LgBit (AURKA-HiBit KI), CRISPR/Cas9 knock-in at the endogenous AURKA locus
T1 sequence (O14965 1-403): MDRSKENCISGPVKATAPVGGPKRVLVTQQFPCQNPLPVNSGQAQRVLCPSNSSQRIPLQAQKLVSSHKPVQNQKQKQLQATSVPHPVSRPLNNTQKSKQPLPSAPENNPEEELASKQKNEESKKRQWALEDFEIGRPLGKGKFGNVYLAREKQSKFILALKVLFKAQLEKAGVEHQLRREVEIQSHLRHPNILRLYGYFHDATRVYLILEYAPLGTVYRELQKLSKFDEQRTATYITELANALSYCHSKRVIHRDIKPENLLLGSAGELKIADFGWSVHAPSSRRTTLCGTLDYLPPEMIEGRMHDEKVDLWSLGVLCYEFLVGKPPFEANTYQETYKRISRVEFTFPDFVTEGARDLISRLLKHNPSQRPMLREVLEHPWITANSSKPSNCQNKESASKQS
Kind of assay: Luciferase assay for AURKA in HeLa LgBit (AURKA-HiBit KI) cell line. Format: cell-based. The following applies: HeLa LgBit (AURKA-HiBit KI) cells, measured after 12 hours. An excerpt: HeLa cell lines that stably express LgBit were constructed via LgBit vector transfection. Then, donor DNA and guide RNA for insertion of HiBit amino acid sequence at C-terminus of inherent Aurora kinase A (AURKA) genes were designed and constructed. Thereafter, they were transfected into the cell lines with CRISPR/Cas9 expression vector system. HiBit gene knock-in single cells were selected, passaged and used for the experiments.
For cell culture, DMEM (Gibco, Cat. No. 11995-065; Lot. No. 2562497), FBS (Gibco, Cat. No. 16000-044; Lot. No. 2511328P), Penicillin/Streptomycin (PS) (Gibco, Cat. No. 15140-122; Lot. No. 2585636), 90 mm^2 cell culture dish (SPL, Cat. No. 20100), 96-well white plate, PBS pH 7.4 (Gibco, […]), TrypLE™ Express (Gibco, Cat. No. 12605-010; Lot. No. 2522525), counting chamber (hematocytometer) (Hirschmann, Cat. No. 8100204; Lot. No. 8021087) and 0.4% Trypan Blue solution (DYNEBIO, Cat. No. CBT3710; Lot. No. 20231017) were used. Cells were cultured in DMEM supplemented with 10% FBS and 1% PS and incubated in CO2 incubator (Thermo, Cat. No. 4111) at 37° C., 5% CO2 condition.
HeLa LgBit (AURKA-HiBit KI) cell lines were cultured in 90 mm^2 cell culture dish, and 3×10^4 cells in […] of total medium volume were seeded and incubated for 18 hours in CO2 incubator. Then, Eudurazine (Promega, Cat. No. N247B; Lot. No. 495218) was added to each well to make up 1% of the total volume, followed by further incubation for 2 hours in CO2 incubator.
The present compounds were fully dissolved in DMSO (Sigma-Aldrich Cat. No. D2438, Lot. No. RNBL7287) and 10 nM or 100 nM of total concentration were used in the experiment. After adding the compounds in each well of 96-well white plate, the plate was placed in the plate reader (BMG Labtech, CLARIOstar Plus) for real-time analysis. The wavelength for analysis was set to […], and the luminescence value was measured after 12 hours. The luminescence value was analyzed through an Excel program.

Consider `Cn1nc(C2CCC(=O)NC2=O)c2cc(F)c(N3CCN(CCC4CCN(NC(=O)c5ccc(Nc6ncc(F)c(Nc7ccc(C(=O)Nc8ccccc8Cl)cc7)n6)cc5)CC4)CC3)cc21` (stereo not shown) [Compound 107, N-(2-chlorophenyl)-4-((2-((4-((4-(2-(4-(3-(2,6-dioxopiperidin-3-yl)-5-fluoro-1-methyl-1H-indazol-6-yl)piperazin-1-yl)ethyl)piperidin-1-yl)carbamoyl)phenyl)amino)-5-fluoropyrimidin-4-yl)amino)benzamide], for which the “luminescence value (Level)” value by setting is: (10 nM compound) “A (A is <0.3)”; (100 nM compound) “A (A is <0.2)”.
For `O=C1CCC(c2ccc(N3CCN(CCC4CCN(NC(=O)c5ccc(Nc6ncc(F)c(Nc7ccc(C(=O)Nc8ccccc8Cl)cc7)n6)cc5F)CC4)CC3)cc2)C(=O)N1` (stereo not shown) [Compound 105, 4-[[4-[4-[(2-chlorophenyl)carbamoyl]anilino]-5-fluoro-pyrimidin-2-yl]amino]-N-[4-[2-[4-[4-(2,6-dioxo-3-piperidyl)phenyl]piperazin-1-yl]ethyl]-1-piperidyl]-2-fluoro-benzamide], the “luminescence value (Level)” value runs as follows: (10 nM compound) “B (B is 0.3 to 0.5)”; (100 nM compound) “A (A is <0.2)”.
For the molecule `O=C1CCC(c2ccc(C#CC3CCN(C4CCN(C(=O)c5ccc(Nc6ncc(F)c(Nc7ccc(C(=O)Nc8ccccc8Cl)cc7)n6)cc5)CC4)CC3)cc2)C(=O)N1` (stereo not shown) [Compound 14, N-(2-chlorophenyl)-4-((2-((4-(4-((4-(2,6-dioxopiperidin-3-yl)phenyl)ethynyl)-[1,4′-bipiperidine]-1′-carbonyl)phenyl)amino)-5-fluoropyrimidin-4-yl)amino)benzamide], the “luminescence value (Level)” value reads like this: (10 nM compound) “D (D is 0.7 to 0.8)”; (100 nM compound) “C (C is 0.4 to 0.6)”.
Taken in the same sequence, the figures for `COc1cc(N2CCN(CCC3CCN(NC(=O)c4ccc(Nc5ncc(F)c(Nc6ccc(C(=O)Nc7ccccc7Cl)cc6)n5)cc4F)CC3)CC2)c(F)cc1C1CCC(=O)NC1=O` (stereo not shown) [Compound 119, 4-((4-((4-((2-chlorophenyl)carbamoyl)phenyl)amino)-5-fluoropyrimidin-2-yl)amino)-N-(4-(2-(4-(4-(2,6-dioxopiperidin-3-yl)-2-fluoro-5-methoxyphenyl)piperazin-1-yl)ethyl)piperidin-1-yl)-2-fluorobenzamide] were “C (C is 0.5 to 0.7)” and “B (B is 0.2 to 0.4)”.
Regarding `COc1cc(C(=O)NN2CCC(CCN3CCN(c4ccc(C5CCC(=O)NC5=O)cc4)CC3)CC2)ccc1Nc1ncc(F)c(Nc2ccc(C(=O)Nc3ccccc3Cl)cc2)n1` (stereo not shown) [Compound 84, 4-((4-((4-((2-chlorophenyl)carbamoyl)phenyl)amino)-5-fluoropyrimidin-2-yl)amino)-N-(4-(2-(4-(4-(2,6-dioxopiperidin-3-yl)phenyl)piperazin-1-yl)ethyl)piperidin-1-yl)-3-methoxybenzamide], the “luminescence value (Level)” value is, setting by setting: (10 nM compound) “C (C is 0.5 to 0.7)”; (100 nM compound) “B (B is 0.2 to 0.4)”.
Consider `O=C1CCC(c2cccc(N3CCC(CN4CCN(C(=O)Cc5ccc(Nc6ncc(F)c(Nc7ccc(C(=O)Nc8ccccc8Cl)cc7)n6)cc5)CC4)CC3)c2)C(=O)N1` (stereo not shown) [Compound 2, N-(2-chlorophenyl)-4-((2-((4-(2-(4-((1-(3-(2,6-dioxopiperidin-3-yl)phenyl)piperidin-4-yl)methyl)piperazin-1-yl)-2-oxoethyl)phenyl)amino)-5-fluoropyrimidin-4-yl)amino)benzamide], for which the “luminescence value (Level)” value runs as follows: (10 nM compound) “C (C is 0.5 to 0.7)”; (100 nM compound) “B (B is 0.2 to 0.4)”.
With `O=C1CCC(c2ccc(N3CCC(CN4CCC(CNC(=O)c5ccc(Nc6ncc(F)c(Nc7ccc(C(=O)Nc8ccccc8Cl)cc7)n6)cc5)CC4)CC3)cc2)C(=O)N1` (stereo not shown) [Compound 62, N-(2-chlorophenyl)-4-((2-((4-(((1-((1-(4-(2,6-dioxopiperidin-3-yl)phenyl)piperidin-4-yl)methyl)piperidin-4-yl)methyl)carbamoyl)phenyl)amino)-5-fluoropyrimidin-4-yl)amino)benzamide], the “luminescence value (Level)” value (10 nM compound) is “B (B is 0.3 to 0.5)” and the “luminescence value (Level)” value (100 nM compound) is on record as “A (A is <0.2)”.
For the molecule `O=C1CCC(Nc2cccc(N3CCC(CN4CCN(C(=O)Cc5ccc(Nc6ncc(F)c(Nc7ccc(C(=O)Nc8ccccc8Cl)cc7)n6)cc5)CC4)CC3)c2)C(=O)N1` (stereo not shown) [Compound 25, N-(2-chlorophenyl)-4-((2-((4-(2-(4-((1-(3-((2,6-dioxopiperidin-3-yl)amino)phenyl)piperidin-4-yl)methyl)piperazin-1-yl)-2-oxoethyl)phenyl)amino)-5-fluoropyrimidin-4-yl)amino)benzamide], the “luminescence value (Level)” value is reported as “C (C is 0.5 to 0.7)” (10 nM compound) and “B (B is 0.2 to 0.4)” (100 nM compound).
Taken in the same sequence, the figures for `CN(CC1CCN(c2ccc(C3CCC(=O)NC3=O)cc2)CC1)C1CC(NC(=O)c2ccc(Nc3ncc(F)c(Nc4ccc(C(=O)Nc5ccccc5Cl)cc4)n3)cc2)C1` (stereo not shown) [Compound 11, N-(2-chlorophenyl)-4-((2-((4-((3-(((1-(4-(2,6-dioxopiperidin-3-yl)phenyl)piperidin-4-yl)methyl)(methyl)amino)cyclobutyl)carbamoyl)phenyl)amino)-5-fluoropyrimidin-4-yl)amino)benzamide] were “D (D is 0.7 to 0.8)” and “B (B is 0.2 to 0.4)”.
Taken in the same sequence, the figures for `Cc1cc(Nc2nc(Nc3ccc(C(=O)NN4CCC(CCN5CCN(c6ccc(C7CCC(=O)NC7=O)cc6)CC5)CC4)cc3)ncc2F)n[nH]1` (stereo not shown) [Compound 59, N-(4-(2-(4-(4-(2,6-dioxopiperidin-3-yl)phenyl)piperazin-1-yl)ethyl)piperidin-1-yl)-4-((5-fluoro-4-((5-methyl-1H-pyrazol-3-yl)amino)pyrimidin-2-yl)amino)benzamide] were “C (C is 0.5 to 0.7)” and “A (A is <0.2)”.
In the same order, the values of `O=C1CCC(c2ccc(N3CCC4(CC3)CC(C3CCN(NC(=O)c5ccc(Nc6ncc(F)c(Nc7ccc(C(=O)Nc8ccccc8Cl)cc7)n6)cc5)CC3)C4)cc2)C(=O)N1` (stereo not shown) [Compound 60, N-(2-chlorophenyl)-4-((2-((4-((4-(7-(4-(2,6-dioxopiperidin-3-yl)phenyl)-7-azaspiro[3.5]nonan-2-yl)piperidin-1-yl)carbamoyl)phenyl)amino)-5-fluoropyrimidin-4-yl)amino)benzamide] are “D (D is 0.7 to 0.8)” and “B (B is 0.2 to 0.4)”.
